Assay results: ChEMBL document CHEMBL5032508, “Synthesis of Fluorescent Probes Targeting Tumor-Suppressor Protein FHIT and Identification of Apoptosis-Inducing FHIT Inhibitors” (J Med Chem, 2021)

Tests used:
[1] = Dissociation constant, pKa of compound; format: physicochemical
[2] = target: T1, Bis(5'-adenosyl)-triphosphatase (Homo sapiens, UniProt P49789); experiment: Inhibition of recombinant human FHIT incubated for 1hr in presence of tokyogreen-labeled CMP probe by fluorescence based analysis
T1 sequence (P49789 whole entry): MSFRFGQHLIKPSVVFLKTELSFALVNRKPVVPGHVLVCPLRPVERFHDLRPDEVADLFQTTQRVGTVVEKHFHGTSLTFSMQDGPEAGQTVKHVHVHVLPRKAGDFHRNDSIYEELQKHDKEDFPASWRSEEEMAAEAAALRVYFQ

[3] = Growth inhibition of human HCC827-luc cells incubated for 72 hrs by CCK-8 assay; format: functional
[4] = Growth inhibition of human NCI-H460-luc cells incubated for 72 hrs by CCK-8 assay; format: functional
[5] = target: T1, Bis(5'-adenosyl)-triphosphatase; experiment: Inhibition of recombinant human FHIT assessed as reduction in AP3Aase activity measured after 45 mins by HPLC analysis
[6] = target: T1, Bis(5'-adenosyl)-triphosphatase; experiment: Inhibition of human FHIT expressed in Escherichia coli BL21(DE3)-RIL cells using AP3A as substrate pretreated for 10 mins followed by substrate addition and measured after 1 hr by HPLC analysis

Structure (SMILES) | IC50 [2] [µM] | GI50 [3] [µM] | GI50 [4] [µM] | other results
Cc1cc(=O)oc2cc(O)c(F)cc12 |  |  |  | pKa [1]: 6.3
O=c1cc(C(F)(F)F)c2cc(F)c(O)cc2o1 |  |  |  | pKa [1]: 5.6
Cc1c(OCc2nn[nH]n2)ccc2c3c(c(=O)oc12)CCCC3 | 5 | > 100 | > 100 | 
Cc1c(OCc2nn[nH]n2)ccc2c3c(c(=O)oc12)CCC(C)C3 (configuration not stated) | 4.66 |  |  | 
O=C(COc1cc2oc(=O)c3c(c2cc1Br)CCCC3)NO | 18 |  |  | 
Cc1ccccc1-c1c2ccc(=O)cc-2oc2cc(O)ccc12 |  |  |  | pKa [1]: 6.2
Cc1c(OCC(=O)O)ccc2c3c(c(=O)oc12)CCCC3 | 11 | > 100 | > 100 | 
O=C(COc1cc2oc(=O)c3c(c2cc1Cl)CCCC3)NO | 50 |  |  | 
CCOC(=O)c1c(C)sc(N)c1C(=O)OCC | 1.01 |  |  | 
COCC(=O)N1CC[C@@H]2[C@H]1C(=O)NC[C@H](CCC(=O)OC)N2C | 4.24 |  |  | 
Cc1ccc(C(=O)Nc2ccc(S(=O)(=O)O)c3cc(S(=O)(=O)O)cc(S(=O)(=O)O)c23)cc1NC(=O)c1cccc(NC(=O)Nc2cccc(C(=O)Nc3cc(C(=O)Nc4ccc(S(=O)(=O)O)c5cc(S(=O)(=O)O)cc(S(=O)(=O)O)c45)ccc3C)c2)c1 [SURAMIN] | 50 |  |  | 

The next lines start with results.

IC50 [2] [µM] | Structure (SMILES) | GI50 [3] [µM] | GI50 [4] [µM] | other results
2.8 | COc1c(OCC(=O)NO)ccc2c3c(c(=O)oc12)CCCC3 | 5.3 | 29 | 
3.98 | NNC(=O)c1nn(-c2ccccc2)c(=O)cc1O |  |  | 
0.77 | CN1C(=O)N/C(=C/c2cccn2-c2ccc(C(=O)O)cc2)C1=O |  |  | 
3.43 | O=C(Cn1cc([N+](=O)[O-])ccc1=O)NC(=O)NCc1ccco1 |  |  | 
5.3 | CCc1c(OCC(=O)NO)ccc2c3c(c(=O)oc12)CCCC3 |  |  | 
1.58 | O=C(O)c1ccc2[nH]c(-c3ccnc(-c4cccnc4)c3)nc2c1 |  |  | 
1.9 | Cc1c(OCC(=O)NO)ccc2c3c(c(=O)oc12)CCCC3 | 2.6 | 15 | IC50 [5]: 0.14 µM
0.12 | O=C(COc1ccc2c3c(c(=O)oc2c1Br)CCCC3)NO | 0.87 | 5.9 | IC50 [5]: 0.06 µM
3.73 | O=C(O)c1ccc(/C=N/NC(=O)c2nc(-c3ccccc3)n(-c3ccccc3)n2)cc1 |  |  | 
8.8 | CC1(C)CC(=O)C2=C(C1)NC1=C(C(=O)c3ccccc31)C2c1ccc(Br)cc1 (configuration not stated) | > 10 | > 10 | IC50 [5]: 23 µM; IC50 [6]: 0.049 µM
8.1 | CC(=O)c1c(OCC(=O)NO)ccc2c3c(c(=O)oc12)CCCC3 |  |  | 
41 | Cc1cc(=O)oc2c(C)c(OCC(=O)NO)ccc12 | 9.5 | 66 | 
4 | NNC(=O)COc1ccc2c3c(c(=O)oc2c1Br)CCCC3 | > 100 | > 100 | 
5.5 | O=C(COc1ccc2c3c(c(=O)oc2c1)CCCC3)NO | 0.99 | 13 | 
